This note sets out measurements from US9956236B2, “Methods for increasing immune responses using agents that directly bind to and activate IRE-1” (Cornell University, priority 2011, dated 2018).

Structures are written as SMILES.

One experiment deals with CD86 and CD40. Kind of experiment: Co-stimulatory ligand (CD86 and CD40) expression with Nelfinavir and synthetic TLR4 agonist MPLA. The experiment is classed as cell-based. The conditions noted are these: Nelfinavir plus TLR4 agonist MPLA compared to TLR4 agonist alone.
The subject of another experiment is IL-6. As to the kind of experiment: IL-6 production with Nelfinavir and synthetic TLR4 agonist MPLA. The experiment is classed as cell-based. Particulars: Nelfinavir plus TLR4 agonist MPLA compared to TLR4 agonist alone. From the text: FIG. 1. HIV-protease inhibitors (PIs) trigger robust IRE1 and XBP1 activation and synergize with TLR4 activation to produce cytokines and co-stimulatory molecules. A) XBP1 mRNA maturation (XBP1s) in J774 cells stimulated with dose dependent concentrations of HIV-PIs (similar data were obtained in primary mouse M0s, and various M0 cell lines of human and mouse origin). B) Cell extracts of cells stimulated with Tunicamycin (TM) or HIV-protease inhibitors were monitored for IRE1 activation by phosphorylation in a Phos-tag SDS-PAGE gel, CHOP induction and ATF6a processing. C) Realtime PCR of CHOP induction by the ER-stress inducer TM and the HIV-PI Nelfinavir (NFR) was analyzed in PERK proficient and deficient MEFs. […]
XBP1 mRNA maturation (XBP1s) in J774 cells stimulated with dose dependent concentrations of HIV-PIs (similar data were obtained in primary mouse M0s, and various M0 cell lines of human and mouse origin) see FIG. 1, panel A. Cell extracts of cells stimulated with Tunicamycin (TM) or HIV-protease inhibitors were monitored for IRE1 activation by phosphorylation in a Phos-tag SDS-PAGE gel, CHOP induction and ATF6a processing, see FIG. 1, panel B. Realtime PCR of CHOP induction by the ER-stress inducer TM and the HIV-PI Nelfinavir (NFR) was analyzed in PERK proficient and deficient MEFs see FIG. 1, panel C.

The next experiment deals with recombinant IRE1 protein (Homo sapiens, UniProt O75460). Kind of experiment: In vitro fluorescent splicing reporter assay with recombinant IRE1 protein. The experiment is classed as biochemical. Particulars: doses of PIs ranging from 20 uM to 0.63 uM; fluorescence over time. (In general: Reporter assays use an easily measured gene product as a stand-in for the process of interest.)
recombinant IRE1 protein, sequence (O75460 19-977, species assumed): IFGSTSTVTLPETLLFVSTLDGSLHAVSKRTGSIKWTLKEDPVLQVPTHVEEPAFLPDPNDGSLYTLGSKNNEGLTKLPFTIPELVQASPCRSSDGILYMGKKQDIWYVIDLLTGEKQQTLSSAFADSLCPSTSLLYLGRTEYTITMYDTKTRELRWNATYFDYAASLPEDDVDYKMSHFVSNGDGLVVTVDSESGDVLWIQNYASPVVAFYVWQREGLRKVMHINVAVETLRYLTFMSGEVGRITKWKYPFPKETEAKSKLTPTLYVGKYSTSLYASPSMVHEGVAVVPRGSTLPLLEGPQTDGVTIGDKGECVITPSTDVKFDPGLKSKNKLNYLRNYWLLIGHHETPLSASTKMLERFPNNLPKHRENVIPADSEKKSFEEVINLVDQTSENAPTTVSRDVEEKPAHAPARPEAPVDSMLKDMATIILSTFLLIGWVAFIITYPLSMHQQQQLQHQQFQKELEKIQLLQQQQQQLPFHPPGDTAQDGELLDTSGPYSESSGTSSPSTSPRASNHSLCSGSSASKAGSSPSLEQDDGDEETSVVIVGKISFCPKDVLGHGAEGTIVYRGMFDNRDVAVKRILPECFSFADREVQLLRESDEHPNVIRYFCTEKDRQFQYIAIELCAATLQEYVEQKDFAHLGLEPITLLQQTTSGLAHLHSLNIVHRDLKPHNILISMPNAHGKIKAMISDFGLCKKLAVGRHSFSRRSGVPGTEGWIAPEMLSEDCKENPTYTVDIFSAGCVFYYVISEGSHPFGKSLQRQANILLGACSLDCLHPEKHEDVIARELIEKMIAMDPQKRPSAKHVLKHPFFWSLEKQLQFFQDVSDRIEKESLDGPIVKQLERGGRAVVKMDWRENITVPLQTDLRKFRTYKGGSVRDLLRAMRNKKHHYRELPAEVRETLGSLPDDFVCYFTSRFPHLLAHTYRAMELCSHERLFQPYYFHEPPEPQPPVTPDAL

In the case of `Cc1c(O)cccc1C(=O)N[C@@H](CSc1ccccc1)[C@H](O)CN1C[C@H]2CCCC[C@H]2C[C@H]1C(=O)NC(C)(C)C` [Nelfinavir], in the experiment with CD86 and CD40, the CD40 expression result was “Increased” and the CD86 expression entry is listed as “Increased”. In the experiment on IL-6, the IL-6 production entry was “Increased”. The “induction of xbp1 splicing” value on recombinant IRE1 protein is reported as “marked induction”.

For `CC(C)c1nc(CN(C)C(=O)N[C@H](C(=O)N[C@@H](Cc2ccccc2)C[C@H](O)[C@H](Cc2ccccc2)NC(=O)OCc2cncs2)C(C)C)cs1` [ritonivir, ritonavir], the “induction of xbp1 splicing” value at recombinant IRE1 protein was “marked induction”.

As to `CC(C)CN(C[C@@H](O)[C@H](Cc1ccccc1)NC(=O)O[C@H]1CCOC1)S(=O)(=O)c1ccc(N)cc1` [amprenivir, amprenavir], the “induction of xbp1 splicing” value at recombinant IRE1 protein was “not”.
